Measurements taken from PMC6324787, “Deletion of genes involved in the ketogluconate metabolism, Entner-Doudoroff pathway, and glucose dehydrogenase increase local and invasive virulence phenotypes in Streptococcus pneumoniae” (PLoS ONE, 2019).

Columns and labels:
[1] = target: T1, SP 0320 (Streptococcus pneumoniae, UniProt A0A0H2UNC9); test: NADH oxidation, A340; type: biochemical; settings: 300 mM potassium 5-keto-D-gluconate, 150 µM NADH, 100 mM Tris-Cl, pH 6.5, 37 °C
T1 construct: gene SP_0320
T1 sequence (A0A0H2UNC9 1-271): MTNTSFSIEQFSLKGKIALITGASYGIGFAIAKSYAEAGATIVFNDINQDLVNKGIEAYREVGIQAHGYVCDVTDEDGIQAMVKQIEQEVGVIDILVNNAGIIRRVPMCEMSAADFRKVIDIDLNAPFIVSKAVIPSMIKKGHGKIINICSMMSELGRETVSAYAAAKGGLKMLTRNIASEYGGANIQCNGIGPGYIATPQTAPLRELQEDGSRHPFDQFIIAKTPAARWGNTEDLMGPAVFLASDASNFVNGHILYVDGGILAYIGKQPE

[2] = target: T2, SP 0318 (Streptococcus pneumoniae, UniProt A0A0H2UNG9); test: ADP-glucokinase / G6PDH-coupled NADPH formation, A340; type: biochemical; settings: 10 mM KDG, 2.5 mM ATP, 10 mM MgCl2, 50 mM Tris-Cl, pH 8.5, 37 °C
T2 construct: gene SP_0318
T2 sequence (A0A0H2UNG9 1-333): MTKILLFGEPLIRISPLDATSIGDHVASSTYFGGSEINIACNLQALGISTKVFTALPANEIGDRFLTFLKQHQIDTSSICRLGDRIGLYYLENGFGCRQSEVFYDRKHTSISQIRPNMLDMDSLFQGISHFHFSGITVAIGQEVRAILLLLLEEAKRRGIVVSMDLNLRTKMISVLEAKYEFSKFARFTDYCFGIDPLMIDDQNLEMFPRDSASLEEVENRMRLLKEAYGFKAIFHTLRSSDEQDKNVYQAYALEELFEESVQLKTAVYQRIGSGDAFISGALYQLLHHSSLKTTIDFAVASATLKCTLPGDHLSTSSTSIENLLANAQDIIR

Row | SMILES | NADH oxidation, A340 [1] | ADP-glucokinase / G6PDH-coupled NADPH formation, A340 [2]
1 | NC(=O)C1=CN([C@@H]2O[C@H](COP(=O)(O)OP(=O)(O)OC[C@H]3O[C@@H](n4cnc5c(N)ncnc54)[C@H](O)[C@@H]3O)[C@@H](O)[C@H]2O)C=CC1 [NADH] | reduction of 5-keto-D-gluconate to D-gluconate with the subsequent oxidation of NADH | –
2 | Nc1ncnc2c1ncn2[C@@H]1O[C@H](COP(=O)(O)OP(=O)(O)OP(=O)(O)O)[C@@H](O)[C@H]1O [ATP] | – | phosphorylation of 2-keto-3-deoxygluconate (KDG) in the presence of ATP to give KDGP
